Experiments:
IKZF2 [1] = target: T1, IKZF2 (Homo sapiens (Human), UniProt Q96SW2+Q9UKS7); assay: In vitro IKZF2 FACS Assay in Jurkat cells; format: cell-based; conditions: 24 hrs; for DC50: half maximal degradation concentration; for Dmax: maximal degradation percentage
Method: In vitro IKZF2 FACS Assay
DC50, A: <1 nM; B: 1-10 nM; C: 10-100 nM; D: 100-1000 nM; E: >1000 nM. Dmax, A: >80%; B: 60-80%; C: 40-60%; D: 20-40%; E: <20%.

IKZF2 [2] = target: T1, IKZF2; assay: In vitro IKZF2 HiBit Assay (HEK293T Flp-in-HiBiT cells); format: cell-based; conditions: HEK293T Flp-in-HiBiT cells, 6 hrs incubation; for DC50: read-out: IKZF2 HiBit DC50; for Dmax: HEK-293T, read-out: IKZF2 HiBit Dmax (%)
How it was run: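 HEK293T Flp-in cells carrying an endogenous N-terminal HiBiT tag on IKZF2 were exposed to compound for 6 h at 0.1% DMSO. The dilution series was 11 doses at 3-fold, diluted from 1 mM. Nano-Glo HiBiT lytic luminescence, normalized to DMSO, gave DC50 for 50% degradation and Dmax across the concentration range, both reported in letter bins.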

IKZF1 = IKZF1 (Homo sapiens (Human), UniProt Q13422+Q96SW2); assay: In vitro IKZF1 HiBit Assay (HEK293T Flp-in-HiBiT-IKZF1 stable cell line); format: cell-based; conditions: HEK293T Flp-in-HiBiT-IKZF1 stable cell line, 6 hrs incubation; for DC50: read-out: IKZF1 HiBit DC50; for Dmax: HEK-293T, read-out: IKZF1 HiBit Dmax (%)
How it was run: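 HEK293T Flp-in cells carrying N-terminal HiBiT-tagged IKZF1 were exposed to compound (0.1% DMSO) for 6 h at 3000 cells/well. HiBiT luminescence was read after lytic LgBiT detection. DC50 and Dmax were taken from DMSO-normalized dose-response curves.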

CRBN/DDB1 = CRBN/DDB1 (Homo sapiens (Human), UniProt Q96SW2); assay: IC50 measurements for binding to CRBN/DDB1 (HTRF); conditions: His tagged CRBN+DDB, Cy5-labeled Thalidomide probe, one hour
How it was run: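 HTRF competition binding with 2 nM His-tagged CRBN-DDB1 complex, 60 nM Cy5-thalidomide probe and 0.4 nM anti-His Tb cryptate in 50 mM HEPES pH 7.5, 1 mM TCEP, 0.01% Brij-35, 50 mM NaCl, 0.1% BSA. Read after 1 h at room temperature; IC50 from four-parameter dose-response fit.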

T1 sequence (Q9UKS7 whole entry): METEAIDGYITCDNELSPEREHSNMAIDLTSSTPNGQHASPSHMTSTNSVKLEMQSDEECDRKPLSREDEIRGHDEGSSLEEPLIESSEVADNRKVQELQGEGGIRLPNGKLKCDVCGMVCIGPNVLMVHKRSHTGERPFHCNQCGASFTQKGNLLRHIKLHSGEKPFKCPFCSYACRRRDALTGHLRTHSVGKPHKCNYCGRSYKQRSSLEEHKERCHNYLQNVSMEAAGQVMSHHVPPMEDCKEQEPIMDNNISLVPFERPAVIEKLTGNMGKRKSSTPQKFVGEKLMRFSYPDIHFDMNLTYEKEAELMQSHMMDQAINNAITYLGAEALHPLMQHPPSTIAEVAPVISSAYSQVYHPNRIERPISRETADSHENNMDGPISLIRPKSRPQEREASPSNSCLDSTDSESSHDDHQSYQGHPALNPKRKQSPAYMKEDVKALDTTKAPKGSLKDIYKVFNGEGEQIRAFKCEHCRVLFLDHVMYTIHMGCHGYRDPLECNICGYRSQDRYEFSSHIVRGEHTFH
T1 sequence (Q96SW2 whole entry): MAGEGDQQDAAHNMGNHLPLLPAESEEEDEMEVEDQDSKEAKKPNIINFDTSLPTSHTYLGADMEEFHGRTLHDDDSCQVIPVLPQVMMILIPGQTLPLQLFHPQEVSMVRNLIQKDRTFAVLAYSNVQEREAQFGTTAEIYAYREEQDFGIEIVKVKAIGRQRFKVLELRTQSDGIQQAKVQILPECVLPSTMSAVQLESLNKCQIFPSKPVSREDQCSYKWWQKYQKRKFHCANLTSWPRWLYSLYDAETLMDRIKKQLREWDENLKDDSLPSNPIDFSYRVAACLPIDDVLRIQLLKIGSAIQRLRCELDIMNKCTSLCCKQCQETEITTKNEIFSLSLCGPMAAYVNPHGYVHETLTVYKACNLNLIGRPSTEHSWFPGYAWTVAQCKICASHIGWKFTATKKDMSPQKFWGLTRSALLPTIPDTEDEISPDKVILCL
T1 sequence (Q16531 2-1140 partner): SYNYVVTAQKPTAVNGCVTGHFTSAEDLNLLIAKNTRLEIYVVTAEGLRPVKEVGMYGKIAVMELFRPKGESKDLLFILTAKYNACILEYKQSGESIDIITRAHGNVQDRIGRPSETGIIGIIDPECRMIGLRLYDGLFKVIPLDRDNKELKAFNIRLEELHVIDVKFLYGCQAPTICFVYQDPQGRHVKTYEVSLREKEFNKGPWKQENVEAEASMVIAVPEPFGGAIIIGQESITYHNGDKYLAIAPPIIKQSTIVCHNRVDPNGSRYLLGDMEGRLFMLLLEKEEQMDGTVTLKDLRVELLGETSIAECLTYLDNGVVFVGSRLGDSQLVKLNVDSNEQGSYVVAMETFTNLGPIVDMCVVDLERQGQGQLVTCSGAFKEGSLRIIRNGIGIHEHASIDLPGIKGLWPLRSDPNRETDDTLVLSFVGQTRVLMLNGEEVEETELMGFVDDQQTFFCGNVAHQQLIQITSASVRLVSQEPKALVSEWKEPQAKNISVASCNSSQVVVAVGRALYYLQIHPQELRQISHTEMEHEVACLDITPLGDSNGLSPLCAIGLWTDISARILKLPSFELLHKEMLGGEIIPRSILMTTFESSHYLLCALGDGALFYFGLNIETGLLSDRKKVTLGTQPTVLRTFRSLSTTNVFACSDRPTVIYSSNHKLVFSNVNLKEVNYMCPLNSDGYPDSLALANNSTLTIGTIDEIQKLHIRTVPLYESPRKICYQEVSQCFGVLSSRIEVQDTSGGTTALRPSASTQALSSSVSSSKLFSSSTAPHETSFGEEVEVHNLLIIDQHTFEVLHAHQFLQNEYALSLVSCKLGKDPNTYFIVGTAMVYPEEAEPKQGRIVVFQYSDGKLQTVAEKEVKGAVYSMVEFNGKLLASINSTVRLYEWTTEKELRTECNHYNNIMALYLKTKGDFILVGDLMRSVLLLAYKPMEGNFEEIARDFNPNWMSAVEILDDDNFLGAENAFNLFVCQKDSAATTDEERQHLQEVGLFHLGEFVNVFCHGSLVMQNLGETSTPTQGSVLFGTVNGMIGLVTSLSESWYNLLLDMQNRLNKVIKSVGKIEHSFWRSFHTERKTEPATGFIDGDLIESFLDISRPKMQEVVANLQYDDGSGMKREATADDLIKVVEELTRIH
Sequence of IKZF1 (Q13422 whole entry): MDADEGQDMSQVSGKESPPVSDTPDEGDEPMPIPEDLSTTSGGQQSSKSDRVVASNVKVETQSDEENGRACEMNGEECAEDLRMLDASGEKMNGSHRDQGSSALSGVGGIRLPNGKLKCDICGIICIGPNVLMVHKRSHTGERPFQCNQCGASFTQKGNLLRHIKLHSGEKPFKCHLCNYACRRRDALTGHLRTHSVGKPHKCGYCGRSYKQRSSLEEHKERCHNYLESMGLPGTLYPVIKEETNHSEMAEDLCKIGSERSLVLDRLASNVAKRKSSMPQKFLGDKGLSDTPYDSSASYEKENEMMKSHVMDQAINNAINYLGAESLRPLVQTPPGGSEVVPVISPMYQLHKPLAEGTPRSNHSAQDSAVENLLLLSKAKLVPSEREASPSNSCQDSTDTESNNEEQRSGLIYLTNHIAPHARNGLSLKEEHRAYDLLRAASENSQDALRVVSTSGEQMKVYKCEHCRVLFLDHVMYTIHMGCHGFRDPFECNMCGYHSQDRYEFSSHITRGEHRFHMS
Sequence of IKZF1 (Q96SW2 whole entry): as the sequence (Q96SW2 whole entry) above
Sequence of IKZF1 (Q16531 2-1140 partner): as the sequence (Q16531 2-1140 partner) above
Sequence of CRBN/DDB1 (Q96SW2 whole entry, species assumed): as the sequence (Q96SW2 whole entry) above
Sequence of CRBN/DDB1 (Q16531 whole entry partner, species assumed): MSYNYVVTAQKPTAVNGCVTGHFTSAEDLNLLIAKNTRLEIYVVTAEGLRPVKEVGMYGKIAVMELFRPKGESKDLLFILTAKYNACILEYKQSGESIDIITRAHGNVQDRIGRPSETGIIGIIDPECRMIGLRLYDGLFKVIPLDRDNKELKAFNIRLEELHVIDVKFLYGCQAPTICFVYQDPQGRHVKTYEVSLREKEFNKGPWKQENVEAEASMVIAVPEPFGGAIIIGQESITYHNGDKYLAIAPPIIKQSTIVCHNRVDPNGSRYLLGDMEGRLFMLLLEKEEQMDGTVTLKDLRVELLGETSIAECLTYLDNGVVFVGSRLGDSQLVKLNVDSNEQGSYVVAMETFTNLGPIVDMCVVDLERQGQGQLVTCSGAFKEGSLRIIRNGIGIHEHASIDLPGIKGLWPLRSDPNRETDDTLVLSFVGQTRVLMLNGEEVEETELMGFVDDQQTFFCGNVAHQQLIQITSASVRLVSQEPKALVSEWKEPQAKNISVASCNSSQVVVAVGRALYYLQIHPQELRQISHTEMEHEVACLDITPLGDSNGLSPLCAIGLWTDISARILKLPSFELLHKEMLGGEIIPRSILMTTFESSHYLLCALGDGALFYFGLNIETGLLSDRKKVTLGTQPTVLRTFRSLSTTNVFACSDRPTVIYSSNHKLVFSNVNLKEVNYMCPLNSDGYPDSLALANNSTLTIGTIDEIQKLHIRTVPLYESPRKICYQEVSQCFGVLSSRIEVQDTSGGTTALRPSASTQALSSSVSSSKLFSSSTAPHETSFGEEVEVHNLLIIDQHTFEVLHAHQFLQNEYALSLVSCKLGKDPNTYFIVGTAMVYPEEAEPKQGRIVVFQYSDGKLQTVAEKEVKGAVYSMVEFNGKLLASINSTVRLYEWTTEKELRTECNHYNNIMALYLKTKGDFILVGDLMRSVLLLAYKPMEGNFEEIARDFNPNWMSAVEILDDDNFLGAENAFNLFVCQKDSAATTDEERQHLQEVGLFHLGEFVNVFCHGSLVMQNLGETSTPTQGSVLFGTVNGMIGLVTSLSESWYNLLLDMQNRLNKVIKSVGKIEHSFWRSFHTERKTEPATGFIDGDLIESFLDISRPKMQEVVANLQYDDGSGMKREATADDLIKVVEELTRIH

DC50 (IKZF2 [1]) | Dmax (IKZF2 [1]) | DC50 (IKZF2 [2]) | Dmax (IKZF2 [2]) | DC50 (IKZF1) | Dmax (IKZF1) | IC50 (CRBN/DDB1) | Structure (SMILES)
1 to 10 nM | > 80% | 1 to 10 nM | > 80% | > 10000 nM | < 20% | – | Nc1n[nH]c2c(CN3CCCC3)cc(-c3ccc4c(c3)CN(C3CCC(=O)NC3=O)C4=O)nc12 (centres unmarked) [Example 151, 3-(5-(3-amino-7-(pyrrolidin-1-ylmethyl)-1H-pyrazolo[4,3-b]pyridin-5-yl)-1-oxoisoindolin-2-yl) piperidine-2,6-dione]
10 to 100 nM | > 80% | 1 to 10 nM | > 80% | 1 to 10 nM | 20 to 40% | – | Cn1cnc2c(CN3CCCC3)cc(-c3ccc4c(c3)CN(C3CCC(=O)NC3=O)C4=O)nc21 (centres unmarked) [Example 180, 3-(5-(3-methyl-7-(pyrrolidin-1-ylmethyl)-3H-imidazo[4,5-b]pyridin-5-yl)-1-oxoisoindolin-2-yl) piperidine-2,6-dione]
1 to 10 nM | > 80% | 1 to 10 nM | > 80% | 10 to 100 nM | 40 to 60% | – | CNc1n[nH]c2c(CN3CCCC3)cc(-c3ccc4c(c3)CN(C3CCC(=O)NC3=O)C4=O)nc12 (centres unmarked) [Example 181, 3-(5-(3-(methylamino)-7-(pyrrolidin-1-ylmethyl)-1H-pyrazolo[4,3-b]pyridin-5-yl)-1-oxoisoindolin-2-yl) piperidine-2,6-dione]
10 to 100 nM | 60 to 80% | 1 to 10 nM | > 80% | > 10000 nM | < 20% | – | O=C1CCC(N2Cc3cc(-c4nc(CN5CCCC5)c5cc[nH]c5n4)ccc3C2=O)C(=O)N1 (centres unmarked) [Example 182, 3-(1-oxo-5-(4-(pyrrolidin-1-ylmethyl)-7H-pyrrolo[2,3-d]pyrimidin-2-yl)isoindolin-2-yl) piperidine-2,6-dione]
10 to 100 nM | 60 to 80% | 1 to 10 nM | > 80% | 10 to 100 nM | 20 to 40% | – | CCNc1n[nH]c2c(CN3CCCC3)cc(-c3ccc4c(c3)CN(C3CCC(=O)NC3=O)C4=O)nc12 (centres unmarked) [Example 199, 3-(5-(3-(ethylamino)-7-(pyrrolidin-1-ylmethyl)-1H-pyrazolo[4,3-b]pyridin-5-yl)-1-oxoisoindolin-2-yl) piperidine-2,6-dione]
1 to 10 nM | > 80% | 1 to 10 nM | > 80% | 10 to 100 nM | 20 to 40% | – | O=C1CCC(N2Cc3cc(-c4cc(CN5CCCC5)c5cnn(C6COC6)c5n4)ccc3C2=O)C(=O)N1 (centres unmarked) [Example 203, 3-(5-(1-(oxetan-3-yl)-4-(pyrrolidin-1-ylmethyl)-1H-pyrazolo[3,4-b]pyridin-6-yl)-1-oxoisoindolin-2-yl) piperidine-2,6-dione]
1 to 10 nM | > 80% | 1 to 10 nM | > 80% | > 10000 nM | < 20% | – | O=C1CCC(N2Cc3cc(-c4cc(CN5CCCC5)c5cnn(C6CCC6)c5n4)ccc3C2=O)C(=O)N1 (centres unmarked) [Example 206, 3-(5-(1-cyclobutyl-4-(pyrrolidin-1-ylmethyl)-1H-pyrazolo[3,4-b]pyridin-6-yl)-1-oxoisoindolin-2-yl) piperidine-2,6-dione]
10 to 100 nM | 40 to 60% | 10 to 100 nM | 60 to 80% | > 10000 nM | < 20% | – | O=C1CCC(N2Cc3cc(-c4nc(CN5CCCC5)c5ccn(C6CS(=O)(=O)C6)c5n4)ccc3C2=O)C(=O)N1 (centres unmarked) [Example 220, 3-(5-(7-(1,1-dioxidothietan-3-yl)-4-(pyrrolidin-1-ylmethyl)-7H-pyrrolo[2,3-d]pyrimidin-2-yl)-1-oxoisoindolin-2-yl) piperidine-2,6-dione]
1 to 10 nM | > 80% | 1 to 10 nM | > 80% | > 10000 nM | < 20% | – | Cc1cn(C2COC2)c2nc(-c3ccc4c(c3)CN(C3CCC(=O)NC3=O)C4=O)cc(CN3CCCC3)c12 (centres unmarked) [Example 240, 3-(5-(3-methyl-1-(oxetan-3-yl)-4-(pyrrolidin-1-ylmethyl)-1H-pyrrolo[2,3-b]pyridin-6-yl)-1-oxoisoindolin-2-yl) piperidine-2,6-dione]
1 to 10 nM | > 80% | 1 to 10 nM | > 80% | > 10000 nM | < 20% | – | O=C1CCC(N2Cc3cc(-c4cc(CN5CCCC5)c5nccc(OC6CC6)c5n4)ccc3C2=O)C(=O)N1 (centres unmarked) [Example 242, 3-(5-(8-cyclopropoxy-4-(pyrrolidin-1-ylmethyl)-1,5-naphthyridin-2-yl)-1-oxoisoindolin-2-yl) piperidine-2,6-dione]
1 to 10 nM | 40 to 60% | 1 to 10 nM | 40 to 60% | > 10000 nM | < 20% | – | O=C1CCC(N2Cc3cc(-c4cc(CN5CCCC5)c5c(C(F)(F)F)nn(C6COC6)c5n4)ccc3C2=O)C(=O)N1 (centres unmarked) [Example 245, 3-(5-(1-(oxetan-3-yl)-4-(pyrrolidin-1-ylmethyl)-3-(trifluoromethyl)-1H-pyrazolo[3,4-b]pyridin-6-yl)-1-oxoisoindolin-2-yl) piperidine-2,6-dione]
1 to 10 nM | > 80% | 1 to 10 nM | > 80% | > 10000 nM | < 20% | – | Cc1nn(C2COC2)c2nc(-c3ccc4c(c3)CN(C3CCC(=O)NC3=O)C4=O)cc(CN3CCCC3)c12 (centres unmarked) [Example 246, 3-(5-(3-methyl-1-(oxetan-3-yl)-4-(pyrrolidin-1-ylmethyl)-1H-pyrazolo[3,4-b]pyridin-6-yl)-1-oxoisoindolin-2-yl) piperidine-2,6-dione]
– | – | < 1 nM | > 80% | 10 to 100 nM | 20 to 40% | 1000 to 5000 nM | Cn1ncc2c(CN3CCCC3)cc(-c3ccc4c(c3)CN(C3CCC(=O)NC3=O)C4=O)nc21 (centres unmarked) [Example 313, 3-(5-(1-methyl-4-(pyrrolidin-1-ylmethyl)-1H-pyrazolo[3,4-b]pyridin-6-yl)-1-oxoisoindolin-2-yl) piperidine-2,6-dione]
– | – | 10 to 100 nM | > 80% | 10 to 100 nM | 20 to 40% | 100 to 500 nM | Cn1cc2c(CN3CCCC3)cc(-c3ccc4c(c3)CN(C3CCC(=O)NC3=O)C4=O)nc2n1 (centres unmarked) [Example 315, 3-(5-(2-methyl-4-(pyrrolidin-1-ylmethyl)-2H-pyrazolo[3,4-b]pyridin-6-yl)-1-oxoisoindolin-2-yl) piperidine-2,6-dione]
– | – | 1 to 10 nM | > 80% | 10 to 100 nM | 20 to 40% | 100 to 500 nM | O=C1CCC(N2Cc3cc(-c4cc(CN5CCCC5)c5cn(C6CCC6)nc5n4)ccc3C2=O)C(=O)N1 (centres unmarked) [Example 316, 3-(5-(2-cyclobutyl-4-(pyrrolidin-1-ylmethyl)-2H-pyrazolo[3,4-b]pyridin-6-yl)-1-oxoisoindolin-2-yl) piperidine-2,6-dione]
– | – | 1 to 10 nM | 60 to 80% | > 10000 nM | < 20% | 100 to 500 nM | O=C1CCC(N2Cc3cc(-c4cc(CN5CCCC5)c5cn(C6COC6)nc5n4)ccc3C2=O)C(=O)N1 (centres unmarked) [Example 317, 3-(5-(2-(oxetan-3-yl)-4-(pyrrolidin-1-ylmethyl)-2H-pyrazolo[3,4-b]pyridin-6-yl)-1-oxoisoindolin-2-yl) piperidine-2,6-dione]

Structure (SMILES) | DC50 (IKZF2 [1]) | Dmax (IKZF2 [1]) | DC50 (IKZF2 [2]) | Dmax (IKZF2 [2]) | DC50 (IKZF1) | Dmax (IKZF1) | IC50 (CRBN/DDB1)
Cn1ncc2nc(-c3ccc4c(c3)CN(C3CCC(=O)NC3=O)C4=O)cc(CN3CCCC3)c21 (centres unmarked) [Example 310, 3-(5-(1-methyl-7-(pyrrolidin-1-ylmethyl)-1H-pyrazolo[4,3-b]pyridin-5-yl)-1-oxoisoindolin-2-yl) piperidine-2,6-dione] | – | – | < 1 nM | > 80% | > 10000 nM | < 20% | 500 to 1000 nM
CN1C2CCC1CN(Cc1cc(-c3ccc4c(c3)CN(C3CCC(=O)NC3=O)C4=O)nc3c1ccn3C)C2 (centres unmarked) [Example 311, 3-(5-(1-methyl-4-((8-methyl-3,8-diazabicyclo[3.2.1]octan-3-yl)methyl)-1H-pyrrolo[2,3-b]pyridin-6-yl)-1-oxoisoindolin-2-yl) piperidine-2,6-dione] | – | – | 1 to 10 nM | 60 to 80% | > 10000 nM | < 20% | 500 to 1000 nM
O=C1CCC(N2Cc3cc(-c4ncn5ccc(CN6CCCC6)cc45)ccc3C2=O)C(=O)N1 (centres unmarked) [Example 312, 3-(1-oxo-5-(7-(pyrrolidin-1-ylmethyl)imidazo[1,5-a]pyridin-1-yl)isoindolin-2-yl) piperidine-2,6-dione] | – | – | 10 to 100 nM | 20 to 40% | > 10000 nM | < 20% | 1000 to 5000 nM

From US20250214991A1 (Oncopia Therapeutics, Inc. d/b/a/ SK Life Science Labs, priority 2022, published 2025)
